In this experiment the target is T1, wild-type AR (Homo sapiens, UniProt P10275).
T1 construct: Full-length human wild type AR was cloned into pcDNA3.1 expression plasmid; expressed in transfected cells; host or cells: PC3
T1 sequence (P10275 1-920): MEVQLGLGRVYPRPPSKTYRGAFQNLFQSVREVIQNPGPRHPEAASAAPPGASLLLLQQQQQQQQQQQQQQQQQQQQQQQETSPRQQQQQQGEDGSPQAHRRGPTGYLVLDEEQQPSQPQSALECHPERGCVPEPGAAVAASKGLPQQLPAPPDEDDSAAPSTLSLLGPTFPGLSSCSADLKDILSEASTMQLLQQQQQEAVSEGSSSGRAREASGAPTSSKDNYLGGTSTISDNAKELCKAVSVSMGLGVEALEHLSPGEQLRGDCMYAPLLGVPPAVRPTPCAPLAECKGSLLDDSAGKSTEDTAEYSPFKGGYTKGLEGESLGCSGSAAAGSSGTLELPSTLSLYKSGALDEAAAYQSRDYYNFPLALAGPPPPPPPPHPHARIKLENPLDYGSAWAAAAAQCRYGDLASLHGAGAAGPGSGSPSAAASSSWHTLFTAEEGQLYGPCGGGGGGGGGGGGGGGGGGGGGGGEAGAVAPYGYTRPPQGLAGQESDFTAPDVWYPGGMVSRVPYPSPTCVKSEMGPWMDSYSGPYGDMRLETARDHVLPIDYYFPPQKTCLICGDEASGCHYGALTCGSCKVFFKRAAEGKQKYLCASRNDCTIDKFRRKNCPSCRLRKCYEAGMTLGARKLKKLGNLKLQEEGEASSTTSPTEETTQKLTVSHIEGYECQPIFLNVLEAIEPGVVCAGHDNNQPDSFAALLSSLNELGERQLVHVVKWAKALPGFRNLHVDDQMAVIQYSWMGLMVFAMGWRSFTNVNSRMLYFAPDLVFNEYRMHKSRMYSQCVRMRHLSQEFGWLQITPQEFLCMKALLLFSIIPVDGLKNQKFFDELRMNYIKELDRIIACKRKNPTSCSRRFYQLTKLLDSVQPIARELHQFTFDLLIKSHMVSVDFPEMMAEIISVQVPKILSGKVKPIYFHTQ
Description: Luciferase reporter assay, PC3 cells transfected with wild-type AR. Type of experiment: cell-based. The conditions noted are these: in the presence of R1881. The method, then: Full-length human wild type AR was cloned into pcDNA3.1 expression plasmid (Invitrogen, Waltham, MA, USA) with a CMV promoter. The T878A mutant (T878A-AR) was generated with the Quikchange Mutagenesis Kit (Stratagene, San Diego, CA, USA) using hARWT plasmid as a template. Androgen-starved PC3 cells were seeded in 96-well plates (3000 cells/well) in RPMI 1640 + 5% CSS for 24 h followed by transfection with 50 ng of hARWT or hART878A along with 50 ng of ARR3tk-luciferase reporter construct (100 ng total plasmid DNA) and 0.3 µL/well TransIT20/20 transfection reagent (TT2020, Mirus, Madison, Wisconsin, WI, USA) for 48 h. Cells were treated with increasing amounts of test compound (0.1% final DMSO concentration) and 0.1 nM R1881 for 24 h. Cell lysis was carried out with 60 µL 1X passive lysis buffer/well (Promega, Madison, Wisconsin, WI, USA). The luminescence from 20 µL of cell lysate and 50 µL of Luciferase assay reagent (Promega, Madison, Wisconsin, WI, USA) was recorded on a TECAN M200pro plate reader.
(In a reporter assay the amount or activity of a reporter protein is the signal.)

`COc1c(F)cccc1-c1csc(N2CCOCC2)n1` [VPC14368, 4-(4-(3-fluoro-2-methoxyphenyl)thiazol-2-yl)morpholine]: the “AR transcription, wild-type AR” value is given as “inhibited by VPC14368 in a dose-dependent manner”.

The values are drawn from article PMC9497135, “Structure-Based Study to Overcome Cross-Reactivity of Novel Androgen Receptor Inhibitors” (Cells, 2022).
